Source: PMC6927578 (Archiv der Pharmazie, 2016)
Like-named read-outs stand apart in the source and are kept apart here.

How the values were obtained:
HDAC1 = HDAC1 (Homo sapiens, UniProt Q13547); assay: Fluor de Lys HDAC isoform assay, HDAC1; conditions: for isoform selectivity among HDAC1, 3 and 6: 125 μM single concentration screen (Fig. 2)
[1] = system: HDAC activity from HeLa cell lysates; assay: Fluor de Lys in vitro fluorescence HDAC activity assay with HeLa cell lysates; format: biochemical, human; conditions: for fold reduced potency compared to SAHA: HeLa cell lysates IC50 ratio; for IC50 / % activity remaining: HeLa cell lysates; for IC50: mean of three trials with standard error; for % activity remaining: 250 μM compound
HDAC6 = target: T1, HDAC6 (Homo sapiens, UniProt Q9UBN7); assay: Fluor de Lys HDAC isoform assay, HDAC6
T1 sequence (Q9UBN7 1-1215): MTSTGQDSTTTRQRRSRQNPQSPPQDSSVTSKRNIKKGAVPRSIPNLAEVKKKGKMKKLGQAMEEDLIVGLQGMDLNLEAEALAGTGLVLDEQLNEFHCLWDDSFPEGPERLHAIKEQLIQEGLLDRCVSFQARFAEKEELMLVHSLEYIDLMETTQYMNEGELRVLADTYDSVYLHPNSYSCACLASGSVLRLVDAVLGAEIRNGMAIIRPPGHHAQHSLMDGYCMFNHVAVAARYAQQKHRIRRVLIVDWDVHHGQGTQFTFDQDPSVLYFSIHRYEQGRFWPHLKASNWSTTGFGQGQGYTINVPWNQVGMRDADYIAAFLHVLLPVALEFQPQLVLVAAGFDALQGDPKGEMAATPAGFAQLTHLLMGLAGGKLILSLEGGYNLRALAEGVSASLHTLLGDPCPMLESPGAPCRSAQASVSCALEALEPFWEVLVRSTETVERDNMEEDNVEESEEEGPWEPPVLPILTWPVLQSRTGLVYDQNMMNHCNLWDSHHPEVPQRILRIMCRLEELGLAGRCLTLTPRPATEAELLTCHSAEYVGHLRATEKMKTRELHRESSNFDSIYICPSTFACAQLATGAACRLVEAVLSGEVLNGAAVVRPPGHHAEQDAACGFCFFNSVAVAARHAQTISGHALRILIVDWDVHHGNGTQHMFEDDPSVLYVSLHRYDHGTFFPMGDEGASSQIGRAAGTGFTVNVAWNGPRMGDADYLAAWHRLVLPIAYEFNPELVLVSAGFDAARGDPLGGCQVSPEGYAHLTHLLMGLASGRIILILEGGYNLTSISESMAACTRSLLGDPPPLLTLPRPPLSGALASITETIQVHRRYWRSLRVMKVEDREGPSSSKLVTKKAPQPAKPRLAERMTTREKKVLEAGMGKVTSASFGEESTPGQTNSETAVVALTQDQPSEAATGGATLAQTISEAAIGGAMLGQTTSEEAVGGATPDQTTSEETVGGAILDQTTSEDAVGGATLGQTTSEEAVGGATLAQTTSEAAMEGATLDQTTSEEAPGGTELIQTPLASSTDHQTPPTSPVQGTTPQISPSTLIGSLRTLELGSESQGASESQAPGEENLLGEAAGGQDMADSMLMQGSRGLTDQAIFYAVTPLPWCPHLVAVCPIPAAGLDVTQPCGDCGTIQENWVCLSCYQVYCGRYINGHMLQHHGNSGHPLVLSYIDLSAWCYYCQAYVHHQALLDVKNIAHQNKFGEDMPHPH

HDAC3 = HDAC3 (Homo sapiens, UniProt O15379); assay: Fluor de Lys HDAC isoform assay, HDAC3
Sequence of HDAC3 (O15379 whole entry, canonical isoform): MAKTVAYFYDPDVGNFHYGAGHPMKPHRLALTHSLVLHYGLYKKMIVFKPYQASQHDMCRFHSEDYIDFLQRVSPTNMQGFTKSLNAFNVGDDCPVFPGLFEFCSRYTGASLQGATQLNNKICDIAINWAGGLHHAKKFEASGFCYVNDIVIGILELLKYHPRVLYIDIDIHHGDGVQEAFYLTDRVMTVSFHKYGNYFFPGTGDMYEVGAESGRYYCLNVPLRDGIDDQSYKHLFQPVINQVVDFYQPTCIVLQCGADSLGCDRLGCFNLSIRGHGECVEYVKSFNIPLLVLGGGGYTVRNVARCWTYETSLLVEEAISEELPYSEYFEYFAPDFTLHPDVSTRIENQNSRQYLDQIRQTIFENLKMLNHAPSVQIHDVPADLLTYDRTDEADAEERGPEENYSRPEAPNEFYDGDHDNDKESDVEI
Sequence of HDAC3 (Q9Y618 395-489 partner limits assumed): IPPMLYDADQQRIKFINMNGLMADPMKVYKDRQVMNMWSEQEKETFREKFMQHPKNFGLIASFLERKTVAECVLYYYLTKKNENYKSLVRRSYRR

[2] = Solubility observed in the HDAC assay; format: physicochemical; conditions: assay conditions; prevented testing above 250 μM
[3] = 125 μM single concentration screen

Sequence of HDAC1 (Q13547 whole entry, canonical isoform): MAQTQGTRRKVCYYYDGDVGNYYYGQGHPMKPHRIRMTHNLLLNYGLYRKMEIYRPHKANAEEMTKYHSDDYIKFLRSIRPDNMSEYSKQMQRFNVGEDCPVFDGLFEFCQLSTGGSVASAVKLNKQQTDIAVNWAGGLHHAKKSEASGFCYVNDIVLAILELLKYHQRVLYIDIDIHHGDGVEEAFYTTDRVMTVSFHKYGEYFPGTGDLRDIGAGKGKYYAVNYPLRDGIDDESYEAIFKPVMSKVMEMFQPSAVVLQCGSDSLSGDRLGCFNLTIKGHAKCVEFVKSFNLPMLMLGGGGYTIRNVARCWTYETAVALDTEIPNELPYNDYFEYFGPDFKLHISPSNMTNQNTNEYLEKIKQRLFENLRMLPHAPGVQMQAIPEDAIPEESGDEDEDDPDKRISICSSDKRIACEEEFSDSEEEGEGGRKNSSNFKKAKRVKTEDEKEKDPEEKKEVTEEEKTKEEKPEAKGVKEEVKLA

Compound | isoform selectivity among HDAC1, 3 and 6 (HDAC1) | fold reduced potency compared to SAHA [1] | IC50 [1] | IC50 (HDAC6) | IC50 (HDAC1) | preference for HDAC1 versus HDAC3 (HDAC1; ratio of IC50 values) | IC50 (HDAC3) | % activity remaining [1] | solubility [2] | inhibition of HDAC6 (HDAC6; [3]) | activity remaining, HDAC1 (HDAC1; [3]) | IC50 (HDAC1; read-out: IC50 HDAC1, mean of at least three trials with standard error) | inhibition of HDAC3 (HDAC3; [3])
CCCCCN(O)C(=O)CCCCCCC(=O)Nc1ccccc1 [Compound 2b, N^1-pentyl-N^1-hydroxy-N^8-phenyloctanediamide] | little to no isoform selectivity | 1700 fold | 153 ± 14 µM | – | – | – | – | – | – | – | – | – | –
O=C(CCCCCCC(=O)N(O)Cc1ccccc1)Nc1ccccc1 [Compound 2c, N^1-benzyl-N^1-hydroxy-N^8-phenyloctanediamide] | preferential HDAC1 inhibition | – | 293 ± 32 µM | 287 ± 9 µM | 177 ± 21 µM | 2.5 fold | 440 ± 23 µM | – | – | – | – | – | –
O=C(CCCCCCC(=O)N(O)CCc1ccccc1)Nc1ccccc1 [Compound 2d, N^1-hydroxy-N^1-phenethyl-N^8-phenyloctanediamide] | roughly similar potency against the isoforms | – | > 500 µM | – | – | – | – | 80 ± 2% activity at 250 μM^b) | low solubility at high concentrations | – | – | – | –
CN(O)C(=O)CCCCCCC(=O)Nc1ccccc1 [Compound 2a, N^1-hydroxy-N^1-methyl-N^8-phenyloctanediamide] | little to no isoform selectivity | > 8800 fold | 794 ± 41 µM | – | – | – | – | – | – | – | – | – | –
O=C(CCCCCCC(=O)N(O)Cc1ccc(-c2ccccc2)cc1)Nc1ccccc1 [Compound 2e, N^1-(biphenyl-4-methyl)-N^1-hydroxy-N^8-phenyloctanediamide] | preferential HDAC1 inhibition | – | > 500 µM | – | – | – | – | 101 ± 1% activity with 250 μM^b) | low solubility at high concentrations | statistically insignificant inhibition | 58±2% | 233 ± 40 µM | statistically insignificant inhibition
